For 27 molecules, inhibition results are on record in patent publication US8901307B2, “Chemical compounds 251” (AstraZeneca AB, priority 2008, dated 2014).

For one experiment, the target named is T1, human His-PIM2 [23-299] (Homo sapiens, UniProt Q9P1W9).
T1 construct: purified human His-PIM2 [23-299] enzyme; His (N); host or cells: E. coli
The experiment can be described thus: PIM2 in-vitro mobility shift assay (Caliper LC3000, FL-Ahx-Bad phosphorylation). To be noted: 1.5 h; percent inhibition at 0.3 uM compound; read-out: PIM2 % I at 0.3 uM. The class given is biochemical. An excerpt: PIM2 In-Vitro Mobility Shift Assay
One may determine the activity of purified human His-PIM2 [23-299] enzyme in-vitro using a mobility shift assay on a Caliper LC3000 reader (Caliper, Mass.), which measures fluorescence of a phosphorylated and unphosphorylated FL-Ahx-Bad (FITC-(AHX)RSRHSSYPAGT-COOH, Primm 200606-00289, Primm Biotech, Mass.) and calculates a ratiometric value to determine percent turnover. One may express PIM2 (produced at AstraZeneca, R&D Boston) in E. coli cells with a typical yield of >90% purity.
One determines phosphorylation of the FL-Ahx-Bad in the presence and absence of the compound of interest. One preincubates 5 uL of Enzyme/Substrate/adenosine triphosphate (ATP) mix consisting of 2.4 nM […], 3.6 uM FL-Ahx-Bad, and 12 uM ATP in 1.2× buffer with 2 ul of compound for 20 minutes at 25° C. One initiates reactions with 5 uL of Metal mix consisting of 24 mM MgCl2 in 1.2× buffer and incubates at 25° C. for 90 minutes. One stops reactions by addition of 5 uL of Stop mix consisting of 100 mM HEPES, 121 mM ethylenediamine tetraacetic acid, 0.8% Coatin Reagent 3 (Caliper, Mass.), and 0.01% Tween. One detects phosphorylated and unphosphorylated substrate by a Caliper LC3000 reader (Caliper, Mass.) in the presence of separation buffer consisting of 100 mM HEPES, 16 mM ethylenediamine tetraacetic acid, 0.1% Coatin Reagent 3 (Caliper, Mass.), 0.015% Brij-35, 5% DMSO, and 5.6 mM MgCl2. One may use the following separation conditions for a Caliper LC3000: −1.0 PSI, −2000 V upstream voltage, −400 V downstream voltage, 0.2 second sample sip, 45 second post sip, 10% laser strength.

The target in the next experiment is T2, human His-PIM1 [2-313] (Homo sapiens, UniProt P11309).
T2 construct: purified human His-PIM1 [2-313] enzyme; His (N); purchased University of Dundee, Scotland; host or cells: baculovirus system
T2 sequence (P11309 2-313): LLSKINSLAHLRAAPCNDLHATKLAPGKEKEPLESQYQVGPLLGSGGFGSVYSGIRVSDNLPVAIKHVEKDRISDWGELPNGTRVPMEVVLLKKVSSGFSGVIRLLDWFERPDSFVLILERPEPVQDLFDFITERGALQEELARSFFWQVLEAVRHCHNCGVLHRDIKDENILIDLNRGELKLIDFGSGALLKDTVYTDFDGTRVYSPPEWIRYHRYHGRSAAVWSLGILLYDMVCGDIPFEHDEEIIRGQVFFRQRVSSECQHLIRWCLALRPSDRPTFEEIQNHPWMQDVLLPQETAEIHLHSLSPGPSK
In words: PIM1 in-vitro mobility shift assay (Caliper LC3000, FL-Ahx-Bad phosphorylation). The class given is biochemical. Conditions: 1.5 h; percent inhibition at 0.3 uM compound; read-out: PIM1 % I at 0.3 uM. The text has this:
PIM1 In-Vitro Mobility Shift Assay
One may determine the activity of purified human His-PIM1 [2-313] enzyme in-vitro using a mobility shift assay on a Caliper LC3000 reader (Caliper, Mass.), which measures fluorescence of a phosphorylated and unphosphorylated FL-Ahx-Bad (FITC-(AHX)RSRHSSYPAGT-COOH, Primm 200606-00289, Primm Biotech, Mass.) and calculates a ratiometric value to determine percent turnover. One may express PIM1 (University of Dundee, Scotland) in baculovirus system with a typical yield of >85% purity.
One determines phosphorylation of the FL-Ahx-Bad in the presence and absence of the compound of interest. One preincubates 5 µl of Enzyme/Substrate/adenosine triphosphate (ATP) mix consisting of 2.4 nM PIM1, 3.6 uM FL-Ahx-Bad, and 240 uM ATP in 1.2× buffer with 2 ul of compound for 20 minutes at 25° C. One initiates reactions with 5 ul of Metal mix consisting of 24 mM MgCl2 in 1.2× buffer and incubated at 25° C. for 90 minutes and stops the reactions by addition of 5 ul of Stop mix consisting of 100 mM HEPES, 121 mM ethylenediamine tetraacetic acid, 0.8% Coatin Reagent 3 (Caliper, Mass.), and 0.01% Tween. One detects phosphorylated and unphosphorylated substrate by a Caliper LC3000 reader (Caliper, Mass.) in the presence of separation buffer consisting of 100 mM HEPES, 16 mM ethylenediamine tetraacetic acid, 0.1% Coatin Reagent 3 (Caliper, Mass.), 0.015% Brij-35, 5% DMSO, and 5.6 mM MgCl2. One may use the following separation conditions for a Caliper LC3000: −1.0 PSI, −2000 V upstream voltage, −400 V downstream voltage, 0.2 second sample sip, 45 second post sip, 10% laser strength.
The table 1 below provides the percent inhibition of PIM1 at 0.3 micromolar for Examples provided herein. Several examples were tested more than once. Variations in the experimental outcomes, negative values, or values over 100% inhibition are presumably due to experimental error inherent in the assay.

The structures appear in SMILES notation. Counter-ions that a name gives are not always drawn.

T1 sequence (Q9P1W9 23-299): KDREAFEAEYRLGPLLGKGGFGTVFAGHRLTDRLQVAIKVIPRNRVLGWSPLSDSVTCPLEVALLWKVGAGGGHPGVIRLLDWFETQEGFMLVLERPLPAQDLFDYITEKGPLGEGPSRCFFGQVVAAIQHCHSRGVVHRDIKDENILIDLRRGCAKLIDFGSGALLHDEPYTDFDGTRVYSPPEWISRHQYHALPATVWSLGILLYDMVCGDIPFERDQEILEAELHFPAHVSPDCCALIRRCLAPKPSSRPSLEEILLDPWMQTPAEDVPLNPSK

Turning to `COc1ccc(N2CC[C@H](N(C)C)C2)c(C=C2SC(=O)NC2=O)c1` [Example 84G, (S)-5-(2-(3-(dimethylamino)pyrrolidin-1-yl)-5-methoxybenzylidene)thiazolidine-2,4-dione], the inhibition at 0.3 µM on human His-PIM2 [23-299] is 63%; at human His-PIM1 [2-313] it was 92%.
With `COc1ccc(N2CCC(N(C)C)CC2)c(/C=C2\SC(=O)NC2=O)c1` [Example 44, (5Z)-5-{2-[4-(dimethylamino)piperidin-1-yl]-5-methoxybenzylidene}-1,3-thiazolidine-2,4-dione], the inhibition at 0.3 µM at human His-PIM2 [23-299] worked out at 46.7%; at human His-PIM1 [2-313], 83.8%.
On to `O=C1NC(=O)/C(=C/c2cccnc2N2CCNCC2)S1` [Example 89, (Z)-5-((2-(piperazin-1-yl)pyridin-3-yl)methylene)thiazolidine-2,4-dione hydrochloride], for which the results for the inhibition at 0.3 µM at human His-PIM2 [23-299] and on human His-PIM1 [2-313] were 21.5% and 48.4%, respectively.
With `COc1cccc(/C=C2\SC(=O)NC2=O)c1N1C[C@@H](C)N[C@@H](C)C1` [Example 35, (Z)-5-(2-((3S,5R)-3,5-dimethylpiperazin-1-yl)-3-methoxybenzylidene)thiazolidine-2,4-dione], the inhibition at 0.3 µM on human His-PIM2 [23-299] and on human His-PIM1 [2-313] was below 5% each time.
On to `O=C1NC(=O)/C(=C/c2cc(C(F)(F)F)cc(Cl)c2N2CCN(Cc3ccc4c(c3)OCO4)CC2)S1` [Example 8], for which the values for the inhibition at 0.3 µM on human His-PIM2 [23-299] and on human His-PIM1 [2-313] were below 5% and 16.3%, respectively.
Regarding `CCOc1cccc(/C=C2\SC(=O)NC2=O)c1N1CCC[C@@H](N)C1` [Example 122I, (R,Z)-5-(2-(3-aminopiperidin-1-yl)-3-ethoxybenzylidene)thiazolidine-2,4-dione hydrochloride], the inhibition at 0.3 µM at human His-PIM2 [23-299] and at human His-PIM1 [2-313] was above 95% throughout.
Take `O=C1NC(=O)/C(=C/c2ccccc2N2CCN(C(=O)c3ccc(CN4CCNCC4)cc3)CC2)S1` [Example 109, (Z)-5-(2-(4-(4-(piperazin-1-ylmethyl)benzoyl)piperazin-1-yl)benzylidene)thiazolidine-2,4-dione hydrochloride]: the inhibition at 0.3 µM stood at 65.8% at human His-PIM2 [23-299] and 64.2% on human His-PIM1 [2-313].
For `O=C1NC(=O)/C(=C/c2cc(C(F)(F)F)cc(Cl)c2N2CCCN(CCO)CC2)S1` [Example 26], the inhibition at 0.3 µM at human His-PIM2 [23-299] is 49.6%; on human His-PIM1 [2-313], above 95%.
As for `COc1cc(N)c(/C=C2\SC(=O)NC2=O)cc1OC` [Example 152], the inhibition at 0.3 µM at human His-PIM2 [23-299] is 16.7%; at human His-PIM1 [2-313], 10.8%.
Turning to `O=C1NC(=O)/C(=C/c2ccccc2N2CCN(C(=O)C3CCCNC3)CC2)S1` (stereo not shown) [Example 116, 5-(2-(4-(piperidine-3-carbonyl)piperazin-1-yl)benzylidene)thiazolidine-2,4-dione hydrochloride], the inhibition at 0.3 µM at human His-PIM2 [23-299] and at human His-PIM1 [2-313] was above 95% throughout.
Regarding `O=C1NC(=O)/C(=C/c2cn[nH]c2)S1` [Example 71, (Z)-5-((1H-pyrazol-4-yl)methylene)thiazolidine-2,4-dione], the inhibition at 0.3 µM on human His-PIM2 [23-299] and at human His-PIM1 [2-313] was below 5% throughout.
For the molecule `N[C@@H]1CCCN(c2c(/C=C3\SC(=O)NC3=O)cccc2OCC2CCCCC2)C1` [Example 122K, (R,Z)-5-(2-(3-aminopiperidin-1-yl)-3-(cyclohexylmethoxy)benzylidene)thiazolidine-2,4-dione hydrochloride], the inhibition at 0.3 µM at human His-PIM2 [23-299] and at human His-PIM1 [2-313] was above 95% each time.
Take `O=C1NC(=O)/C(=C/c2cc(C(F)(F)F)cc(Cl)c2N2CCN(Cc3ccncc3)CC2)S1` [Example 17]: the inhibition at 0.3 µM at human His-PIM2 [23-299] is below 5%; on human His-PIM1 [2-313], 29.8%.
`O=C1NC(=O)/C(=C/c2cccc(OCCCN3CCCCC3)c2)S1` [Example 84D, (Z)-5-(3-(3-(piperidin-1-yl)propoxy)benzylidene)thiazolidine-2,4-dione]: the inhibition at 0.3 µM at human His-PIM2 [23-299] is below 5%; at human His-PIM1 [2-313] it was 27.8%.
Turning to `COc1cc(/C=C2\SC(=O)NC2=O)c(N2CCCC2)cc1OC` [Example 46, (5Z)-5-(4,5-dimethoxy-2-pyrrolidin-1-ylbenzylidene)-1,3-thiazolidine-2,4-dione], the inhibition at 0.3 µM is 15.7% on human His-PIM2 [23-299] and 13.4% at human His-PIM1 [2-313].
Regarding `COCC(=O)N[C@H]1CCN(c2c(Cl)cccc2/C=C2\SC(=O)NC2=O)C1` [Example 136], the inhibition at 0.3 µM was found to be 44.6% at human His-PIM2 [23-299] and 82.8% at human His-PIM1 [2-313].
As for `NCCC(=O)N1CCN(c2c(Cl)cccc2/C=C2\SC(=O)NC2=O)CC1` [Example 95, (Z)-5-(2-(4-(3-aminopropanoyl)piperazin-1-yl)-3-chlorobenzylidene)thiazolidine-2,4-dione hydrochloride], the inhibition at 0.3 µM on human His-PIM2 [23-299] and on human His-PIM1 [2-313] was above 95% each time.
As to `NC[C@@H]1CCN(c2c(Cl)cccc2/C=C2\SC(=O)NC2=O)C1` [Example 122C, (S,Z)-5-(2-(3-(aminomethyl)pyrrolidin-1-yl)-3-chlorobenzylidene)thiazolidine-2,4-dione], the inhibition at 0.3 µM at human His-PIM2 [23-299] and at human His-PIM1 [2-313] was above 95% throughout.
Turning to `O=C1NC(=O)/C(=C/c2ccc3cc[nH]c3c2)S1` [Example 79, (5Z)-5-(1H-indol-6-ylmethylene)-1,3-thiazolidine-2,4-dione trifluoroacetate], the inhibition at 0.3 µM on human His-PIM2 [23-299] is 60.7%; on human His-PIM1 [2-313], 90%.
In the case of `CN(C)CCCOc1ccccc1/C=C1\SC(=O)NC1=O` [Example 81, (5Z)-5-{2-[3-(dimethylamino)propoxy]benzylidene}-1,3-thiazolidine-2,4-dione], the inhibition at 0.3 µM on human His-PIM1 [2-313] is below 5%.
`CCCCN1CCCN(c2c(Cl)cc(C(F)(F)F)cc2/C=C2\SC(=O)NC2=O)CC1` [Example 27]: the inhibition at 0.3 µM amounted to 25.1% at human His-PIM2 [23-299] and 90.8% at human His-PIM1 [2-313].
With `CN(C)C1CCN(c2ccc(C(N)=O)cc2/C=C2\SC(=O)NC2=O)C1` (stereo not shown) [Example 57, (Z)-4-(3-(dimethylamino)pyrrolidin-1-yl)-3-((2,4-dioxothiazolidin-5-ylidene)methyl)benzamide hydrochloride], the inhibition at 0.3 µM on human His-PIM2 [23-299] worked out at 42.6%; at human His-PIM1 [2-313], 53.3%.
In the case of `O=C1NC(=O)/C(=C/c2ccccc2OCCO)S1` [Example 60, (Z)-5-(2-(2-hydroxyethoxy)benzylidene)thiazolidine-2,4-dione], the inhibition at 0.3 µM is 11.3% on human His-PIM2 [23-299] and 35.4% at human His-PIM1 [2-313].
As for `O=C1NC(=O)/C(=C/c2cnc3[nH]ccc3c2)S1` [Example 80, (5Z)-5-(1H-pyrrolo[2,3-b]pyridin-5-ylmethylene)-1,3-thiazolidine-2,4-dione], at human His-PIM1 [2-313], the inhibition at 0.3 µM was below 5%.
Regarding `O=C1NC(=O)/C(=C/c2cc(C(F)(F)F)cc(Cl)c2N2CCOCC2)S1` [Example 29], the inhibition at 0.3 µM on human His-PIM1 [2-313] turned out to be 92.8%.
For the molecule `O=C1NC(=O)/C(=C/c2cccc(N3CCOCC3)c2)S1` [Example 83, (5Z)-5-(3-morpholin-4-ylbenzylidene)-1,3-thiazolidine-2,4-dione trifluoroacetate], the inhibition at 0.3 µM on human His-PIM1 [2-313] came out at 34%.
Regarding `O=C1NC(=O)C(=Cc2c[nH]c3ccccc23)S1` (stereo in doubt) [Example 67, (Z)-5-((1H-indol-3-yl)methylene)thiazolidine-2,4-dione], the inhibition at 0.3 µM at human His-PIM2 [23-299] was below 5%.
